Test results as given in US20230391772A1, “METHODS AND COMPOSITIONS FOR TARGETED PROTEIN DEGRADATION” (Ranok Therapeutics (Hangzhou) Co. Ltd., priority 2020, published 2023).

What was measured:
KRAS(G12C) [1] = biological target: T1, KRAS(G12C) (Homo sapiens, UniProt P01116, G12C); experiment: KRAS(G12C) Western blot protein degradation assay in MIA PaCa-2 cells; format: cell-based; set-up: host or cells: LU65A; details: 48 hr; for inhibition at 0.1562 µM: 156.2 nM; for inhibition at 0.3125 µM: 312.5 nM; for inhibition at 0.625 µM: 625 nM; for inhibition at 1.25 µM: 1250 nM; for inhibition at 2.5 µM: 2500 nM; for inhibition at 5 µM: 5000 nM; for inhibition at 10 µM: 10,000 nM
Experimental: The following cancer cell lines were employed: BT-474 human breast carcinoma (ATCC, #HTB-20); MIA PaCa-2 human pancreatic carcinoma [2 copies KRAS(G12C)](ATCC, #CRL-1420); NCI-H23 human non-small cell lung cancer [1 copy KRAS(G12C)](ATCC, #CRL-5800); NCI-H358 human non-small cell lung cancer [1 copy KRAS(G12C)](ATCC, #CRL-5807); LU65A human lung carcinoma (Pharmaron, Beijing, China). Cell lines were cultured essentially according to ATCC and Pharmaron recommendations.
KRAS(G12C) Western Blot Protein Degradation Assay
The MIA PaCa-2 human pancreatic carcinoma cell line and LU65A human lung cancer cell line, which expresses KRAS(G12C), were seeded in 6- or 12-well tissue culture plates, and after 1 hr, test compounds were added at various concentrations and incubated at 37° C./5% CO2 for 48 hr (MIA Paca-2) and 6 hr (LU65A) respectively. Cells were then washed with cold PBS, aspirated and cold RIPA buffer containing a protease/phosphatase inhibitor cocktail was added to lyse cells. After centrifugation, the total protein concentrations of cell lysates were determined using the BCA protein assay. Samples were normalized for equivalent protein concentrations, 5×SDS-PAGE loading buffer added and denatured at 100° C. for 10 min. 20 μl of each sample/well was loaded on a SDS-PAGE gel and electrophoresed for 20 min at 80 V, then 120 V for 1.5 hr. Gels were then electroblotted to nitrocellulose membranes using a wet-transfer method at 250 mA for 2.5 hr. Membranes were incubated with blocking buffer for 1 hr and washed 3 times with TBST for 5 min. Membranes were then incubated with anti-KRAS (Sigma-Aldrich, #SAB1404011) and anti-β-Actin monoclonal antibodies (Cell Signaling Technology, #3700) diluted in blocking buffer at 4° C. overnight per the manufacturer's recommendations. After washing 3 times, blots were incubated with appropriately labeled secondary antibodies for 1 hr at room temperature and washed again. Fluorescence imaging and quantitation was performed using a LI-COR Odyssey. Results was analyzed using GraphPad Prism 7 software. Compound degradation of was determined by the following equation and DC50 values (the concentration at which 50% of the maximal degradation of KRAS occurs) calculated using GraphPad Prism 7 software:
% Inhibition=100−(D−B)/(S−B)*100%. • S: Fluorescence intensity of cells with antibody • D: Fluorescence intensity of compound-treated cells with antibody • B: Fluorescence intensity of cells without antibody

[2] = test system: MIA PaCa-2 human pancreatic carcinoma; experiment: MIA PaCa-2 CCK-8 proliferation assay; format: cell-based; details: Homo sapiens, MIA PaCa-2, 72 h, MIA PaCa-2 cells
How it was run: (§1)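 Proliferation of mutant-KRAS(G12C) cells (2 copies in MIA PaCa-2, single copy in NCI-H358/NCI-H23) measured with CCK-8 after treatment across 20 μM–1.02 nM; inhibition expressed relative to vehicle-treated wells after subtracting no-cell background.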

HSP90a protein = biological target: T2, HSP90a protein (Homo sapiens, UniProt P07900); experiment: HSP90α-binding fluorescent polarization (FP) assay, BODIPY-labeled RNK04010 probe; details: FP competition with RNK04010 (BODIPY-labeled), 5 nM, 300 min at 25° C.
T2 construct: purchased BPS Bioscience 50298
How it was run: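 Test compounds (2.5-fold serial dilution, 20 μM to 5.2 nM) competed with a fluorescent tracer for N-terminal HSP90a, with fluorescence polarization as the read-out. FITC-geldanamycin tracer was used at 5 nM final with 120 min incubation at 25° C; BODIPY-labeled RNK04010 was used at 5 nM final with 300 min incubation.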

KRAS(G12C) [3] = biological target: T1, KRAS(G12C); experiment: KRAS(G12C)/SOS1 homogeneous time-resolved fluorescence (HTRF) assay; set-up: purchased Cisbio 63ADK000CB16PEG; details: absence of GTP, 4° C. for 3 hr, read-out: KRAS (G12C) binding
How it was run: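 HTRF kit measuring compound-induced block of KRAS(G12C)-SOS1 interaction without GTP. Compounds tested as 3-fold serial dilutions down to 1.02 nM, incubated with reaction components 3 h at 4 °C in sealed plates before fluorescence read.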

[4] = test system: NCI-H358 human non-small cell lung cancer; experiment: NCI-H358 CCK-8 proliferation assay; format: cell-based; details: NCI-H358 cells, 72 hr
How it was run: as §1

KRAS(G12C) [5] = biological target: T1, KRAS(G12C); experiment: KRAS(G12C) Western blot protein degradation assay in LU65A cells; format: cell-based; set-up: LU65A human lung cancer cell line, which expresses KRAS(G12C); host or cells: LU65A; details: 6 hr
How it was run: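 Cells treated with compound at various concentrations at 37 °C for 48 hr (MIA PaCa-2) or 6 hr (LU65A), then lysed in RIPA. Protein-normalized lysates immunoblotted for KRAS with β-actin, fluorescence quantified; DC50 is the concentration giving 50% of maximal KRAS degradation.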

T1 sequence (P01116 1-188 isoform P01116-2 G12C): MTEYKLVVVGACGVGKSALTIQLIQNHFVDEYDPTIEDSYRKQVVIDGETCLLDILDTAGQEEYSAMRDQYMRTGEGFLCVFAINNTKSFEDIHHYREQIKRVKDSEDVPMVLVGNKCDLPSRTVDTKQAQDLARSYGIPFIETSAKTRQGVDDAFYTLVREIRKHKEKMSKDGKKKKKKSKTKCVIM

Row | inhibition at 0.1562 µM (KRAS(G12C) [1]) [%] | inhibition at 0.3125 µM (KRAS(G12C) [1]) [%] | inhibition at 0.625 µM (KRAS(G12C) [1]) [%] | inhibition at 1.25 µM (KRAS(G12C) [1]) [%] | inhibition at 2.5 µM (KRAS(G12C) [1]) [%] | inhibition at 5 µM (KRAS(G12C) [1]) [%] | inhibition at 10 µM (KRAS(G12C) [1]) [%] | EC50 [2] [nM] | IC50 (HSP90a protein) [nM] | IC50 (KRAS(G12C) [3]) [nM] | EC50 [4] [nM] | DC50 (KRAS(G12C) [5]) [nM] | SMILES
1 | < 33 | < 33 | < 33 | 33 to 66 | 33 to 66 | > 66 | > 66 | 100 to 1000 | 100 to 1000 |  |  |  | C=CC(=O)N1CCN(c2nc(OC[C@@H]3CCN(C(=O)C4CCN(Cc5ccc(-n6c(C(N)=O)nnc6-c6cc(C(C)C)c(O)cc6O)cc5)CC4)C3)nc3c2CCN(c2cccc4cccc(Cl)c24)C3)C[C@@H]1CC#N [Compound 183, 4-(4-((4-((R)-3-(((4-((S)-4-acryloyl-3-(cyanomethyl)piperazin-1-yl)-7-(8-chloronaphthalen-1-yl)-5,6,7,8-tetrahydropyrido[3,4-d]pyrimidin-2-yl)oxy)methyl)pyrrolidine-1-carbonyl)piperidin-1-yl)methyl)phenyl)-5-(2,4-dihydroxy-5-isopropylphenyl)-4H-1,2,4-triazole-3-carboxamide]
2 | < 33 | < 33 | < 33 | 33 to 66 | > 66 | > 66 | > 66 | < 100 | 100 to 1000 | 100 to 1000 |  |  | C=CC(=O)N1CCN(c2nc(OC[C@@H]3CCN(C(=O)C4CCN(Cc5ccc(-n6c(C(=O)NCC(F)(F)F)nnc6-c6cc(C(C)C)c(O)cc6O)cc5)CC4)C3)nc3c2CCN(c2cccc4cccc(Cl)c24)C3)C[C@@H]1CC#N [Compound 185, 4-(4-((4-((R)-3-(((4-((S)-4-acryloyl-3-(cyanomethyl)piperazin-1-yl)-7-(8-chloronaphthalen-1-yl)-5,6,7,8-tetrahydropyrido[3,4-d]pyrimidin-2-yl)oxy)methyl)pyrrolidine-1-carbonyl)piperidin-1-yl)methyl)phenyl)-5-(2,4-dihydroxy-5-isopropylphenyl)-N-(2,2,2-trifluoroethyl)-4H-1,2,4-triazole-3-carboxamide]
3 | < 33 | < 33 | < 33 | < 33 | < 33 | < 33 | < 33 | > 1000 | > 1000 |  | > 1000 |  | C=CC(=O)N1CCN(c2nc(OC[C@@H]3CCN(C(=O)c4cc(C(C)C)c(O)cc4OC)C3)nc3c2CCN(c2cccc4cccc(Cl)c24)C3)C[C@@H]1CC#N [Compound 153, 2-((S)-1-acryloyl-4-(7-(8-chloronaphthalen-1-yl)-2-(((R)-1-(4-hydroxy-5-isopropyl-2-methoxybenzoyl)pyrrolidin-3-yl)methoxy)-5,6,7,8-tetrahydropyrido[3,4-d]pyrimidin-4-yl)piperazin-2-yl)acetonitrile]
4 |  |  |  |  |  |  |  | 100 to 1000 | < 100 | < 100 |  | 100 to 1000 | C=CC(=O)N1CCN(c2nc(OC[C@@H]3CC[C@H](CN4CCN(Cc5ccc(-n6c(O)nnc6-c6cc(C(C)C)c(O)cc6O)cc5)CC4)N3C)nc3c2CCN(c2cccc4cccc(Cl)c24)C3)C[C@@H]1CC#N [Compound 326, 2-[(2S)-4-[7-(8-chloronaphthalen-1-yl)-2-{[(2S,5R)-5-{[4-({4-[3-(2,4-dihydroxy-5-isopropylphenyl)-5-hydroxy-1,2,4-triazol-4-yl]-phenyl}methyl)piperazin-1-yl]methyl}-1-methylpyrrolidin-2-yl]methoxy}-5H,6H,8H-pyrido[3,4-d]pyrimidin-4-yl]-1-(prop-2-enoyl)piperazin-2-yl]acetonitrile]
5 |  |  |  |  |  |  |  | 100 to 1000 | < 100 | < 100 |  | 100 to 1000 | C=CC(=O)N1CCN(c2nc(OC[C@@H]3C[C@H](C(=O)NCCc4ccc(CN5CCC(Cc6ccc(-n7c(C(=O)NCC(F)(F)F)nnc7-c7cc(C(C)C)c(O)cc7O)cc6)CC5)cc4)CN3C)nc3c2CCN(c2cccc4cccc(Cl)c24)C3)C[C@@H]1CC#N [Compound 346, 4-{4-[(1-{[4-(2-{[(3S,5S)-5-({[7-(8-chloronaphthalen-1-yl)-4-[(3S)-3-(cyanomethyl)-4-(prop-2-enoyl)piperazin-1-yl]-5H,6H,8H-pyrido[3,4-d]pyrimidin-2-yl]oxy}methyl)-1-methylpyrrolidin-3-yl]formamido}ethyl)phenyl]methyl}piperidin-4-yl)methyl]phenyl}-5-(2,4-dihydroxy-5-isopropylphenyl)-N-(2,2,2-trifluoroethyl)-1,2,4-triazole-3-carboxamide]
6 |  |  |  |  |  |  |  | 100 to 1000 | < 100 | < 100 |  | 100 to 1000 | C=CC(=O)N1CCN(c2nc(OC[C@@H]3C[C@H](N4CCC(C(=O)N5CC6(CCN(Cc7ccc(-n8c(O)nnc8-c8cc(C(C)C)c(O)cc8O)cc7)CC6)C5)CC4)CN3C)nc3c2CCN(c2cccc4cccc(Cl)c24)C3)C[C@@H]1CC#N [Compound 348, 2-[(2S)-4-[7-(8-chloronaphthalen-1-yl)-2-{[(2S,4S)-4-{4-[7-({4-[3-(2,4-dihydroxy-5-isopropylphenyl)-5-hydroxy-1,2,4-triazol-4-yl]phenyl}methyl)-2,7-diazaspiro [3.5]nonane-2-carbonyl]piperidin-1-yl}-1-methylpyrrolidin-2-yl]methoxy}-5H,6-H,8H-pyrido[3,4-d]pyrimidin-4-yl]-1-(prop-2-enoyl)piperazin-2-yl]acetonitrile]
7 |  |  |  |  |  |  |  | 100 to 1000 | < 100 | < 100 |  | > 1000 | C=CC(=O)N1CCN(c2nc(OC[C@@H]3C[C@H](C(=O)N4CCN(Cc5ccc(-n6c(C(=O)NCC(F)(F)F)nnc6-c6cc(C)c(O)cc6O)cc5)CC4)CN3C)nc3c2CCN(c2cccc4cccc(Cl)c24)C3)C[C@@H]1CC#N [Compound 347, 4-[4-({4-[(3S,5S)-5-({[7-(8-chloronaphthalen-1-yl)-4-[(3S)-3-(cyanomethyl)-4-(prop-2-enoyl)piperazin-1-yl]-5H,6H,8H-pyrido[3,4-d]pyrimidin-2-yl]oxy}methyl)-1-methylpyrrolidine-3-carbonyl]piperazin-1-yl}methyl)phenyl]-5-(2,4-dihydroxy-5-methylphenyl)-N-(2,2,2-trifluoroethyl)-1,2,4-triazole-3-carboxamide]
8 |  |  |  |  |  |  |  | > 1000 | < 100 | < 100 |  | > 1000 | C=CC(=O)N1CCN(c2nc(OC[C@@H]3C[C@H](C(=O)N[C@@H]4CCCN(Cc5ccc(-n6c(O)nnc6-c6cc(C(C)C)c(O)cc6O)cc5)C4)CN3C)nc3c2CCN(c2cccc4cccc(Cl)c24)C3)C[C@@H]1CC#N [Compound 229, (3S,5S)-5-({[7-(8-chloronaphthalen-1-yl)-4-[(3S)-3-(cyanomethyl)-4-(prop-2-enoyl)piperazin-1-yl]-5H,6H,8H-pyrido[3,4-d]pyrimidin-2-yl]oxy}methyl)-N-[(3R)-1-({4-[3-(2,4-dihydroxy-5-isopropylphenyl)-5-hydroxy-1,2,4-triazol-4-yl]phenyl}methyl)piperidin-3-yl]-1-methylpyrrolidine-3-carboxamide]
